The text below walks through data of PMC10813393 (Biomolecules, 2023).

As a reminder, the pIC50 is the negative decadic logarithm of the IC50, by convention in mol/L. One may read the CC50 as the concentration giving 50% cytotoxicity.

pIC50: −log10 of the molar value.

The target of data set [1] is recombinant SARS-CoV-2 3CL^pro (Severe acute respiratory syndrome coronavirus 2, UniProt P0DTD1). Briefly: biochemical. The conditions noted are these: for inhibition of the enzymatic activity of 3CL^pro (in words): judged from IC50 values; for pIC50: luminogenic substrate, 60 min, read-out: IC50 for inhibiting SARS-CoV-2 3CL^pro. In kind it is biochemical.
A short description of data set [2]: in vitro. In kind it is cell-based. The note with it: African green monkey; VERO cells, 72 h exposure, CCK-8; read-out: Cytotoxicity (CC50). As to the method: A CCK-8 assay (ab228554; Abcam, Cambridge, UK) was performed to evaluate the cytotoxicity of pure compounds. WST-8/CCK8 tetrazolium salt is reduced by cellular dehydrogenases to form an orange formazan product that is soluble in a tissue culture medium. The formazan produced is directly proportional to the number of living and metabolically active cells and is measured via absorbance at 460 nm. Therefore, VERO cells (2 × 10^4 cells/mL) were grown in 96-well microtiter plates at 37 °C in a 5% CO2 incubator for 24 h. Then, they were exposed to serial dilutions of L7OG CY, FA, and RA for 72 h and incubated with CCK8 tetrazolium salt for 4 h at 37 °C in a CO2 incubator. The absorbance was measured at 460 nm using a GloMax® Discover Microplate Reader (Promega, Madison, WI, USA), and the percentage of cellular viability was calculated and compared to untreated cells.
Commercially available cynarin (CY), rosmarinic acid (RA), folic acid (FA), and luteolin-7-O-glucuronide (L7OG) were used to prepare the respective stock solutions.
Specifically, L7OG was dissolved in DMSO to obtain a 5.5 mM solution, RA was dissolved in water to obtain an 8.0 mM solution, CY was dissolved in methanol to obtain a 4.7 mM solution, and FA was dissolved in ethanol to obtain an 8.7 mM solution.
Viability assay of natural compounds
VERO cells were exposed to different concentrations of L7OG, CY, FA, and RA for 72 h and incubated with CCK8 tetrazolium salt for 4 h before measuring the absorbance values in a microplate reader. The percentage of cellular viability was calculated and compared to untreated cells.
Figure S1. Cellular viability assay following treatment with different L7OG, CY, FA, and RA concentrations. VERO cells were incubated for […] with various concentrations of natural compounds, as reported in the material and methods section. Results represent the mean of three biologically independent experiments ± SD.
Table S1. Cytotoxicity (CC50) values (μM) of natural compounds on VERO cells.
(1 picture or pasted object on this page, not shown here)

The target of data set [3] is recombinant SARS-CoV-2 PL^pro (GST-PL^pro) (Severe acute respiratory syndrome coronavirus 2, UniProt P0DTD1). The experiment in a line: SARS-CoV-2 PLpro luminescent assay. In kind it is biochemical. The note with it: for inhibition of PL^pro (in words): judged from IC50 values; for pIC50: luminogenic substrate, 60 min, read-out: IC50 for inhibiting SARS-CoV-2 PL^pro.
For data set [4], the system named is SARS-CoV-2 M^pro. The conditions noted are these: cited from earlier work.

As to `O=C(/C=C/c1ccc(O)c(O)c1)O[C@@H]1C[C@@](OC(=O)/C=C/c2ccc(O)c(O)c2)(C(=O)O)C[C@@H](O)[C@@H]1O` [CY, 1,3-dicaffeoylquinic acid], in data set [1], the “inhibition of the enzymatic activity of 3CL^pro (in words)” value (from here on “inhibition … of 3CL^pro (in words)”) is “no enzymatic inhibition” and the pIC50 is < 3.52. Besides, the CC50 at 72 h in data set [2] was determined as 91.5 µM.
Consider `O=C(O)[C@H]1O[C@@H](Oc2cc(O)c3c(=O)cc(-c4ccc(O)c(O)c4)oc3c2)[C@H](O)[C@@H](O)[C@@H]1O` [Compound L7OG, luteolin-7-O-glucuronide], for which, in data set [1], the “inhibition … of 3CL^pro (in words)” value was “moderate inhibition” and the pIC50 is 3.77. Moreover, in data set [3], the “inhibition of PL^pro (in words)” value was “moderately inhibit” and the pIC50 is 3.82. For the same molecule, the CC50 at 72 h in data set [2] was determined as 55.7 µM.
Take `Nc1nc(=O)c2nc(CNc3ccc(C(=O)N[C@@H](CCC(=O)O)C(=O)O)cc3)cnc2[nH]1` [FA, folic acid, reference compound]: in data set [1], the “inhibition … of 3CL^pro (in words)” value is given as “moderate inhibition” and the pIC50 was 3.63. In data set [3], the “inhibition of PL^pro (in words)” value is reported as “moderately inhibit” and the pIC50 was 3.74. Moreover, in data set [2], the CC50 at 72 h came out at 107 µM.
On to `O=C(/C=C/c1ccc(O)c(O)c1)O[C@H](Cc1ccc(O)c(O)c1)C(=O)O` [RA, rosmarinic acid], for which, in data set [1], the “inhibition … of 3CL^pro (in words)” value is on record as “no enzymatic inhibition”. The results for the pIC50 in data set [1], in data set [3] and in data set [4] were < 3.52, < 3.52 and 5.16, respectively. Further, in data set [2], the CC50 at 72 h is 78.3 µM.
